According to US10501493B2, “Broad spectrum antibiotics” (priority 2011, dated 2019):
Values after ≈ are worked out from the molar mass of the structure shown. Read-outs that look alike come from different tables or passages of the source.

Legend:
S. aurues NCTC-8325 = assay: In vitro antimicrobial activity, MIC by broth micro-dilution; type: cell-based, S. aureus; details: for MIC: Staphylococcus aureus, NCTC8325, read-out: MIC class, S. aurues NCTC-8325
Procedure: (§1) In vitro antimicrobial activity of each compound was determined by measuring minimal inhibitor concentrations (MICs) using the broth micro-dilution technique as approved by the Clinical and Laboratory Standards Institute (CLSI). The microbiological panel examined contains a number of bacterial species including E. coli MG1655, P. aeruginosa, S. aureus, and S. epidermidis. In addition, the panel includes previously described pseudo-isogenic strains of these four species (P. A. Smith et al. Chem Biol 2010, 1223-1231), in which a specific proline residue in SPase (called LepB in Gram-negative organisms an SpsB in Gram-positive organisms) has been mutated to a different amino acid. The resulting strains have increased susceptibility to the arylomycin class of antibiotics. Analysis of the strains lacking this proline residue will increases the dynamic range of the assay, and comparison of the sensitivities of the isogenic pairs provides ongoing confirmation that the activity gained through derivatization is specific to the inhibition of SPase. Briefly, bacterial streaks were grown on Mueller Hinton Agar II (Difco™) with or without 5% lysed horse blood for a period of 24 hours at either 35° C. or 28° C. Bacterial colonies were suspended in cation adjusted Mueller Hinton broth and diluted to a final concentration of 1*10^7 colony forming units/ml. Two-fold serial dilutions of each compound were arrayed into 96-well plates (100 μl final volume per well) and 5 ul of the bacterial suspension will be added. […] MICs were periodically checked plating serial dilutions of MIC wells and quantitatively determining viable colonies.

S. aureus SPase = target: T1, S. aureus SPase (Staphylococcus aureus, UniProt P0A070); assay: Enzymatic fluorogenic substrate cleavage assay for IC50; type: biochemical
T1 construct: Full length His-tagged S. aureus SPase protein was expressed similarly; His-tag; made in house; host or cells: E. coli BL21(DE3)
Procedure: (§2) Full length His-tagged E. coli SPase proteins were expressed in E. coli BL21(DE3) containing the plasmid pET23-lepB, P. A. Smith et al. Chem Biol 2010, 1223-1231. Briefly, saturated overnight cultures grown in 20 ml of Luria-Bertani medium supplemented with ampicillin were subcultures into 1.5 L of Luria-Bertani, and shaken at 37° C. until an optical density at 600 nm of 0.4-0.5 was achieved. Protein expression was induced with Isopropyl β-D-1-thiogalactopyranoside (ITPG) at a final concentration of […], and purified using nickel affinity chromatography. Full length His-tagged S. aureus SPase protein was expressed similarly from E. coli BL21(DE3) containing the plasmid pCDF1-SaSpsB or pCDF1-SaSpsB(P29S) and purified similarly to the E. coli protein with the following exceptions. SPase protein was solubilized using 300 mM NaCl, 20 mM Tris pH 8.06, 5 mM Imidazole, 10% glycerol, 1% Triton X-100, prior to purification in Ni-NTA Superflow resin and resin bound protein was washed in a similar buffer containing 1% Elugent in place of Triton X-100 prior to protein eluted in wash buffer supplemented with 300 mM imidazole. Protein purify was judged to exceed 95% by visual inspection of SDS-PAGE followed by Comassie staining. All protein concentrations were determined by BCA assay.
(§3) In addition to the equilibrium binding assays, compound activity is also characterized by measuring inhibition of E. coli and S. aureus substrate cleavage reactions using fluorogenic peptides developed at RQx Pharmaceuticals. Briefly, two fluorogenic peptide substrates (decanoyl-LSSPA Y^NO2 A ? ADK^abzPD (SEQ ID NO: 1) and decanyol-LTPTAY^NO2 A ? ASKK^abzDD (SEQ ID NO: 2)) have been synthesized, where abz is the fluorescence donor 2-aminobenzamide, YNO2 is the fluorescence acceptor 3-nitrotyrosine, and the cleavage site is indicated with an arrow. These substrates are processed with a second order rate constant (Kcat/KM) of 10^5 M^−1s^−1 for E. coli and S. aureus SPase enzymes, and cleavage results in a greater than 10-fold increase in fluorescence signal (excitation at 314 nm, emission at 416 nm) as measured using a SpectraMax M2 fluorescence microplate reader. Two-folder serial dilutions of compound are prepared in cleavage reaction buffer consisting of: 50 mM Tris-HCl pH 8.0, 100 mM NaCl, 10% glycerol, 1 mM EDTA, detergent (1% NP-40 or 0.1% Elugent™ for E. coli LepB or S. aureus SpsB respectively) and either 2.5 nM of E. coli SPase enzyme or 10 nM of S. aureus SPase enzyme. 40 μl aliquots of the compound dilution series in the protein/buffer solution is transferred to black 384-well polypropylene plates, and 10 μl of fluorogenic peptide at a concentration of 100 μM is added to initiate the reaction. The increase in fluorescence, corresponding to substrate cleavage, is monitored continuously at room temperature for 30 minutes and initial reaction rates are calculated based in the linear increase in fluorescence from the initial 30 minutes of the reaction. Reaction rates are plotted as a function of compound concentration, and IC50 values are determined nonlinear regression analysis (SoftMax® Pro v5.4) of the sigmoidal dose-response curve.

E. coli SPase = target: T2, E. coli SPase (Escherichia coli, UniProt P00803); assay: as above; type: biochemical
T2 construct: Full length His-tagged E. coli SPase proteins were expressed in E. coli BL21(DE3); His-tag; made in house; host or cells: E. coli BL21(DE3)
Procedure: as §2, §3

S. pneumoniae D39 = assay: In vitro antimicrobial activity, MIC by broth micro-dilution; type: cell-based; details: for MIC: Streptococcus pneumoniae, D39, read-out: MIC class, S. pneumoniae D39
Procedure: as §1

S. epidermidis RP62A = assay: as above; type: cell-based; details: for MIC: Staphylococcus epidermidis, RP62A, read-out: MIC class, S. epidermidis RP62A
Procedure: as §1

E. coli ATCC 25922 = assay: as above; type: cell-based; details: for MIC: Escherichia coli, ATCC25922, read-out: MIC class, E. coli ATCC 25922
Procedure: as §1

[1] = test system: S. aureus NCTC-8325 SpsB(P295); assay: as above; type: cell-based; details: for MIC: Staphylococcus aureus, NCTC8325, read-out: MIC class, S. aureus NCTC-8325 SpsB(P295)
Procedure: as §1

[2] = test system: E. col ATCC 25922 LepB(P84L); assay: as above; type: cell-based, E. coli; details: for MIC: Escherichia coli, ATCC25922, read-out: MIC class, E. col ATCC 25922 LepB(P84L)
Procedure: as §1

| Compound | MIC (S. aurues NCTC-8325) [µg/mL] | IC50 (S. aureus SPase) [µM] | IC50 (E. coli SPase) [µM] | MIC (S. pneumoniae D39) [µg/mL] | MIC (S. epidermidis RP62A) [µg/mL] | MIC (E. coli ATCC 25922) [µg/mL] | MIC [1] [µg/mL] | MIC [2] [µg/mL] | MIC class, S. aurues NCTC-8325 (S. aurues NCTC-8325) | IC50 (S. aureus SPase; fluorogenic peptide cleavage, read-out: IC50 class S. aureus SPase) [µM] | IC50 (E. coli SPase; fluorogenic peptide cleavage, read-out: IC50 class E. coli SPase) [µM] | MIC class, S. pneumoniae D39 (S. pneumoniae D39) | MIC class, S. epidermidis RP62A (S. epidermidis RP62A) | MIC class, E. coli ATCC 25922 (E. coli ATCC 25922) | MIC class, S. aureus NCTC-8325 SpsB(P295) [1] | MIC class, E. col ATCC 25922 LepB(P84L) [2] |
| --- | --- | --- | --- | --- | --- | --- | --- | --- | --- | --- | --- | --- | --- | --- | --- | --- |
| CCCCCCCCCCCCCCCC(=O)N(C)[C@H](CO)C(=O)N[C@H](C)C(=O)NCC(=O)N(C)[C@@H]1C(=O)N[C@@H](C)C(=O)N[C@H](C(=O)N[C@H](CO)Cc2cnc[nH]2)Cc2ccc(O)c(c2)-c2cc1ccc2O [Compound 71] | > 64 | > 10 | > 10 | 16 to 64 (≈ 15.9 to 63.7 µM) | > 64 | > 64 | > 64 | > 64 |  |  |  |  |  |  |  |  |
| CCCCCCCCCCCCCCCC(=O)N(C)[C@H](CO)C(=O)N[C@H](C)C(=O)NCC(=O)N(C)[C@@H]1C(=O)N[C@@H](C)C(=O)N[C@H](C(=O)NCC(O)C(=O)NC)Cc2ccc(O)c(c2)-c2cc1ccc2O (some centres unmarked) [Compound 90] |  |  |  |  |  |  |  |  | a (MIC >64 μg/ml) | 1 to 10 | 1 to 10 | c (MIC ≤8 μg/ml) | c (MIC ≤8 μg/ml) | a (MIC >64 μg/ml) | a (MIC >64 μg/ml) | a (MIC >64 μg/ml) |
| CCCCCCCCCCCCCCCC(=O)N(C)[C@H](CO)C(=O)N[C@H](C)C(=O)NCC(=O)N(C)[C@@H]1C(=O)N[C@@H](C)C(=O)N[C@H](C(=O)OC[C@H](C)N)Cc2ccc(O)c(c2)-c2cc1ccc2O [Compound 57] |  | 1 to 10 | 1 to 10 | 16 to 64 (≈ 17.1 to 68.2 µM) | < 8 | > 64 | > 64 | 16 to 64 (≈ 17.1 to 68.2 µM) |  |  |  |  |  |  |  |  |
| CCCCCCCCCCCCCCCC(=O)N(C)[C@H](CO)C(=O)N[C@H](C)C(=O)NCC(=O)N(C)[C@@H]1C(=O)N[C@@H](C)C(=O)N[C@H](C(=O)N[C@@H](C)CO)Cc2ccc(O)c(c2)-c2cc1ccc2O [Compound 56] |  | > 10 | 1 to 10 | 16 to 64 (≈ 17.1 to 68.2 µM) | < 8 | > 64 | > 64 | > 64 |  |  |  |  |  |  |  |  |
| CCCCc1ccc(-c2ccc(C(=O)N(C)[C@H](CO)C(=O)N[C@H](C)C(=O)N[C@@H](CCCCN)C(=O)N(C)[C@@H]3C(=O)N[C@@H](C)C(=O)N[C@H](C(=O)O)Cc4ccc(O)c(c4)-c4cc3ccc4O)cc2)cc1 [Compound 96] |  |  |  |  |  |  |  |  | a (MIC >64 μg/ml) |  |  | a (MIC >64 μg/ml) | b (MIC 16-64 μg/ml) | a (MIC >64 μg/ml) | a (MIC >64 μg/ml) | b (MIC 16-64 μg/ml) |
| CCCCc1ccc(-c2ccc(C(=O)N[C@H](CO)C(=O)N[C@H](C)C(=O)N[C@@H](CCCCN)C(=O)N(C)[C@@H]3C(=O)N[C@@H](C)C(=O)N[C@H](C(=O)O)Cc4ccc(O)c(c4)-c4cc3ccc4O)cc2)cc1 [Compound 98] | > 64 |  |  | > 64 | 16 to 64 (≈ 17.1 to 68.4 µM) | > 64 |  | < 8 |  |  |  |  |  |  |  |  |
